Laboratory results as given in ChEMBL document CHEMBL5729604, “Dihydrothieno[3,2-b]pyridine compounds” (2023).

The compounds below were run against Flap endonuclease 1 (Homo sapiens, UniProt P39748) (assay: Enzymatic IC50 Assays: FEN1, EXO1 or XPG enzyme was incubated with compound or vehicle (DMSO) and the FAM-labeled DNA oligomer substrate in a microtiter plate. The stop buffer contains EDTA to stop the enzymatic reaction. The plate is read for fluorescence intensity. The high control (DMSO) with high fluorescence intensity represents no inhibition of enzymatic reaction while the low control (10 μM) with low fluorescence intensity represents full inhibition of enzymatic reaction.).
Sequence of Flap endonuclease 1 (P39748 whole entry): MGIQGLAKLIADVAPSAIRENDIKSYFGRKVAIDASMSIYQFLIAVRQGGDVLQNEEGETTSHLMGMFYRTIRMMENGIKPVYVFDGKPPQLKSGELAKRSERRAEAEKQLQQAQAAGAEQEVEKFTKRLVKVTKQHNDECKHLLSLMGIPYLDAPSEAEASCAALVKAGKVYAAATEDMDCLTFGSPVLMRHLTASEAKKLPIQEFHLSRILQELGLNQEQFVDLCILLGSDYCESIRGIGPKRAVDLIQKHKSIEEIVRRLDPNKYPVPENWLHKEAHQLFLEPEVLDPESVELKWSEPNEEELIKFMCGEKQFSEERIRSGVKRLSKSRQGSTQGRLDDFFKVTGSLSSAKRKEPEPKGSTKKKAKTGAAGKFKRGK

IC50, < 200 nM:
O=C(O)c1c(O)c(=O)n(Cc2cnc3ccccn23)c2ccsc12
COc1cccc(-n2cc(Cn3c(=O)c(O)c(C(=O)O)c4sccc43)cn2)c1
COc1ccc(Cn2c(=O)c(O)c(C(=O)O)c3sccc32)cn1
COc1ccc(Cn2cc(Cn3c(=O)c(O)c(C(=O)O)c4sccc43)cn2)cc1
Cc1c(Cn2c(=O)c(O)c(C(=O)O)c3sccc32)cnn1C
O=C(O)c1c(O)c(=O)n(Cc2cnn(-c3cccc(Cl)c3)c2)c2ccsc12
